# Experimental data taken from patent US20220098228A1, “METHODS AND COMPOSITIONS FOR IMPROVING THE IMMUNE SYSTEM AND PROVIDING IMMUNO-PROTECTION” (Natreon, Inc., priority 2020, published 2022).
# Read-outs that look alike come from different tables or passages of the source. Marks after values point to notes of the source that are not given here.
# How the values were obtained:
# peritoneal macrophages [1] = assay: NBT reduction assay in peritoneal macrophages, cyclophosphamide-induced immunosuppression (Example II); assay type: in vivo, Swiss albino mice
# Procedure: (§1) The mice were acclimatized for one week in the laboratory conditions, before being used in the experiment. All experiments were conducted between 10.00 hr and 14.00 hr. Principles of laboratory animal care (NIH publication no. 85-23, revised 1985) were followed.
# (§2) All test compounds (DBPs and DBP glycosides) were suspended in 0.3% of CMC (Carboxymethyl Cellulose) solutions of distilled water and were administered orally for 7 days by using an intubation canula. The volume of dose was 100 μl/10 g body weight. Cyclophosphamide was dissolved in distilled water and was injected (250 mg/kg, i.p.) on day one and volume of dose was 100 μl/10 g body weight. Control animals received equivalent volume of the vehicles CMC (0.3%) solutions only.
# On day seven all the animals were sacrificed under ether anesthesia and peritoneal macrophages were lavaged using ice cold phosphate buffer saline (PBS: 0.15M NaCl pH-7.4). After centrifugation (3000 rpm×10 min) at 4° C. the pellet was re-suspended in PBS and cell viability was confirmed by trypan blue exclusion method. (Bala A, Haldar P K, Kar B, Naskar S and Mazumder U K, “Carbon tetrachloride: A hepatotoxin causes oxidative stress in murine peritoneal macrophage and peripheral blood lymphocyte cells” Immunopharmacol. and Immunotoxicol. 34(1): 157-162 (2012)).
# Preparation of NBT solution: 0.2% NBT (nitroblue tetrazolium) in PB (Phosphate Buffer, pH 7.4), 5% dextrose and HBSS (Hank's balanced salt solution). The three solutions were mixed in 6:2:4 ratios. (Saxena A K, Singh K P, Srivastava S N, Shukla L J and Shanker R., “Immunomodulating effects of caffeine in rodents” Ind J Exptl Biol. 22: 298-301 (1984)).
# Method: 0.5 ml of NBT solution was added to 0.5 ml of peritoneal macrophages (1×10^6 cells/ml) in a micro-centrifuge tube. This mixture was incubated at 37° C. for 45 minutes. The cell suspension was centrifuged at 1500 rpm for 10 minutes. Supernatant was discarded and pellet was re-suspended in 2 ml of DMSO. The tubes were kept in a boiling water bath for 10 minutes. The tubes were again centrifuged at 1500 rpm for 10 minutes. The supernatant was collected, and absorbance was measured at 515 nm.
# [2] = for Body Weight (gm) Day 0 / Feed Intake (gm) Day 0 / Water Intake (ml) Day 0 / Body Weight (gm) Day 7 / Feed Intake (gm) Day 7 / Water Intake (ml) Day 7: cyclophosphamide 250 mg/kg i.p. alone; for feed intake compared to vehicle control: 3,8-(OH)2-DBP 50 mg/kg
# Procedure: (§3) Male and female Swiss albino mice (n=8; 4 from each gender) weighing approximately 25±5 g, were obtained from National Research Institute of Ayurveda for Drug Development (Govt. of India), Kolkata, and were housed in polypropylene cages at 22±3° C., relative air humidity of 45 to 55%, with 12.00 h light & dark cycle (lighting on from 6:00 AM to 6:00 PM). […] The mice were acclimatized for one week in the laboratory conditions, before being used in the experiment. All experiments were conducted between 10.00 h and 14.00 h. Principles of laboratory animal care (NIH publication no. 85-23, revised 1985) was followed.
# (§4) Cyclophosphamide was dissolved in distilled water and the mice were administered a single exposure (250 mg/kg, i.p.) on day 1.
# (§5) 3-OH-DBP, 3,8-(OH)2-DBP, and combined 3-OH-DBP+3,8-(OH)2-DBP were administered once daily for 7 days starting from day 1. Following 7 days of treatment the mice were anaesthetized and sacrificed under anaesthesia followed by collection of peritoneal macrophages and spleen (for splenocyte isolation).
# (§6) Swiss albino mice were randomly divided into 8 Groups (n=8; 4 from each gender). […] (2:10) (12 mg/kg b.w., p.o.), Group VI mice were administered 3-OH-DBP (10 mg/kg b.w., p.o.), Group VII mice were administered 3,8-(OH)2-DBP (50 mg/kg b.w., p.o.), Group VIII mice were administered [3-OH-DBP+3,8-(OH)2-DBP] (10:50) (60 mg/kg b.w., p.o.).
# (§7) Results were expressed in terms of mean±SEM (n=8; 4 from each gender). Data were subjected to one way ANOVA followed by Tukey's test using GraphPad Prism 4.0 software to establish statistical significance (*p<0.05, **p<0.01, ***p<0.001, where * refers to comparison with Group I vehicle control; #p<0.05, ##p<0.01, ###p<0.001, where #refers to comparison with Group II cyclophosphamide administration; ^ap<0.05, ^aap<0.01, ^aap<0.01, where a refers to comparison of Day 7 with Day 0).
# splenocytes [3] = assay: Splenocyte viability, trypan blue exclusion (Example III); assay type: in vivo, Swiss albino mice; details: for % Viability Day7, splenocyte viability: Day 7, cyclophosphamide 250 mg/kg i.p. alone
# Procedure: as §3, §4, §5, §6
# Spleens were collected and single cell suspension was prepared by mincing and tapping the spleen fragments on stainless steel 200-mesh in ice cold phosphate buffer saline (PBS: 0.15M NaCl; pH: 7.4). Cell suspensions were centrifuged at 2000 rpm for 10 minutes.
# as §7
# peritoneal macrophages [4] = assay: NBT reduction of peritoneal macrophages (Example III); assay type: in vivo, Swiss albino mice; details: for NBT reduction compared with vehicle control: cyclophosphamide, 3-OH-DBP 2 and 10 mg/kg, combined 12 mg/kg
# Procedure: as §3, §4, §5, §6
# (§8) All the animals were sacrificed under ether anesthesia and peritoneal macrophages were lavaged using ice cold phosphate buffer saline (PBS: 0.15 M NaCl; pH: 7.4). After centrifugation (3000 rpm×10 min) at 4° C., pellets were re-suspended in PBS and cell viability was confirmed by trypan blue exclusion assay.
# Preparation of NBT solution: 0.2% NBT (nitroblue tetrazolium) in PBS (pH 7.4), 5% dextrose and HBSS. These three solutions were mixed in 6:2:4 ratios.
# 0.5 ml of NBT solution was added to 0.5 ml of peritoneal macrophages (1×10^6 cells/ml) in micro-centrifuge tube. This mixture was incubated at 37° C. for 2 hours. The cell suspension was centrifuged at 2000 rpm for 10 minutes. Supernatants were discarded and pellets were re-suspended in 1 ml of DMSO. The tubes were kept in boiling water bath for 10 minutes and then cooled and centrifuged at 2000 rpm for 10 minutes. The supernatants were collected and absorbance was measured at 515 nm.
# as §7
# splenocytes [5] = assay: Cell viability of splenocytes, trypan blue exclusion, cyclophosphamide-induced immunosuppression (Example II); assay type: in vivo, Swiss albino mice
# Procedure: as §1, §2
# Spleen was collected. Single cell suspension was prepared by mincing and tapping the spleen fragments on stainless steel 200-mesh in ice cold phosphate buffer saline (PBS: 0.15M NaCl pH 7.4). Cell suspension was centrifuged at 2000 rpm for 10 minutes. The pellet was re-suspended in PBS and cell viability was confirmed by trypan blue exclusion method.
# peritoneal macrophages [6] = assay: Peritoneal macrophage viability, trypan blue exclusion (Example III); assay type: in vivo, Swiss albino mice; details: for % Viability Day 7, peritoneal macrophage viability: cyclophosphamide 250 mg/kg i.p. alone
# Procedure: as §3, §4, §5, §6, §8, §7
# [7] = cyclophosphamide 250 mg/kg i.p. day one, alone, day 7, Mean ± SD, n = 6
# [8] = female mice, cyclophosphamide alone
structure (smiles),measurement,setting,value
"O=P1(N(CCCl)CCCl)NCCCO1 (stereo not shown) [Cyclophosphamide, reference compound]","OD (515 nm), NBT reduction assay in peritoneal macrophages",peritoneal macrophages [1]; [7],0.117 ± 0.015
same,NBT reduction capacity of peritoneal macrophages,peritoneal macrophages [1]; cyclophosphamide alone vs CMC control,significant (p<0.001) decrease
same,Body Weight (gm) Day 0,[2]; female mice,23.00 ± 1.89 gm
same,Feed Intake (gm) Day 0,[2]; female mice,28.50 ± 0.96 gm
same,Water Intake (ml) Day 0,[2]; female mice,3.620 ± 0.16 mL
same,Body Weight (gm) Day 7,[2]; female mice,21.75 ± 0.63 gm
same,Feed Intake (gm) Day 7,[2]; female mice,24.71 ± 0.41^a gm
same,Water Intake (ml) Day 7,[2]; female mice,6.425 ± 0.48 mL
same,feed intake compared to vehicle control,"[2]; female mice, cyclophosphamide, 3-OH-DBP 10 mg/kg","significantly (p<0.05, p<0.01) decreased"
same,Body Weight (gm) Day 0,[2]; male mice,30.75 ± 1.89 gm
same,Feed Intake (gm) Day 0,[2]; male mice,28.50 ± 0.96 gm
same,Water Intake (ml) Day 0,[2]; male mice,6.125 ± 0.16 mL
same,Body Weight (gm) Day 7,[2]; male mice,30.50 ± 2.18 gm
same,Feed Intake (gm) Day 7,[2]; male mice,26.81 ± 0.86^a gm
same,Water Intake (ml) Day 7,[2]; male mice,"5.863 ± 0.15*,## ml"
same,feed intake compared to vehicle control,"[2]; male mice, cyclophosphamide, 3-OH-DBP 10 mg/kg","significantly (p<0.05, p<0.01) decreased"
same,feed intake Day 7 in comparison to Day 0,"[2]; male mice, cyclophosphamide, 3-OH-DBP 10 mg/kg, 3,8-(OH)2-DBP 10 and 50 mg/kg","significantly (p<0.05, p<0.01) decreased"
same,"% Viability Day7, splenocyte viability",splenocytes [3]; female mice,79.70 ± 1.58*** %
same,splenocyte viability compared with vehicle control,splenocytes [3]; [8],significantly (p<0.001) decreased
same,"% Viability Day7, splenocyte viability",splenocytes [3]; male mice,70.22 ± 0.98*** %
same,splenocyte viability compared with vehicle control,"splenocytes [3]; male mice, cyclophosphamide, 2 mg/kg 3-OH-DBP, 10 mg/kg 3,8-(OH)2-DBP, 12 mg/kg combined",significantly (p<0.001) decreased
same,"O.D. (515 nm) Day 7, NBT reduction of peritoneal macrophages","peritoneal macrophages [4]; female mice, Day 7, cyclophosphamide 250 mg/kg i.p. alone",0.119 ± 0.005***
same,NBT reduction compared with vehicle control,"peritoneal macrophages [4]; female mice, 3,8-(OH)2-DBP 10 and 50 mg/kg","significantly (p<0.05, p<0.01, p<0.001) decreased"
same,"O.D (515 nm) Day 7, NBT reduction of peritoneal macrophages","peritoneal macrophages [4]; male mice, Day 7, cyclophosphamide 250 mg/kg i.p. alone",0.209 ± 0.02419***
same,NBT reduction compared with vehicle control,"peritoneal macrophages [4]; male mice, 3,8-(OH)2-DBP 10 mg/kg","significantly (p<0.01, p<0.001) decreased"
same,% Cell Viability of splenocytes,splenocytes [5]; [7],51.12 ± 4.69 %
same,splenocyte viability,splenocytes [5]; cyclophosphamide alone vs control,significantly (p<0.01) decreased
same,"% Viability Day 7, peritoneal macrophage viability",peritoneal macrophages [6]; female mice,58.19 ± 0.60** %
same,peritoneal macrophage viability compared with vehicle control,peritoneal macrophages [6]; [8],significantly (p<0.05) decreased
same,"% Viability Day 7, peritoneal macrophage viability",peritoneal macrophages [6]; male mice,55.72 ± 2.18* %
same,peritoneal macrophage viability compared with vehicle control,"peritoneal macrophages [6]; male mice, cyclophosphamide, 3-OH-DBP 2 mg/kg, 3,8-(OH)2-DBP 10 mg/kg",significantly (p<0.05) decreased
